Experimental data reported in US20100129434A1, “COMPOSITIONS AND METHODS FOR THE TREATMENT OF MUCORMYCOSIS AND OTHER FUNGAL DISEASES” (priority 2006, published 2010).
Converted amounts (≈) assume the structure as drawn. Like-named read-outs stand apart in the source and are kept apart here.

Key:
[1] = test system: Mucor spp.; assay: Deferasirox susceptibility testing (MIC/MFC), Mucor clinical isolates; assay type: cell-based
Protocol: Minimum inhibitory concentration (MIC) and minimum fungicidal concentration (MFC) were determined for deferasirox by the method of Espinel-Ingroff using R. oryzae spores starved for iron (Espinel-Ingroff, (2001), supra). Cidality was defined as a <4-fold difference between MIC and MFC.
We next determined the deferasirox susceptibilities of multiple clinical isolates of Mucorales (Table 3). The MIC9OS of deferasirox against Mucor, non-oryzae Rhizopus spp., and R. oryzae were 3.12 to 6.25 μg/ml. MFCs were similar to MICs, and deferasirox was cidal for 28/29 (97%) of isolates. Of note, slight growth was seen within the first twelve hours even at extremely high concentrations of deferasirox. […] Furthermore, the MICs and MFCs of deferasirox against these isolates were well below clinically achievable peak (˜38 μg/ml) and trough serum levels (˜17 μg/ml) of the drug at steady state when administered at the FDA-approved starting dose (20 mg/kg/d).

[2] = test system: R. oryzae 99-892; assay: Kidney histopathology of DKA mice infected with R. oryzae; assay type: in vivo; conditions: 10 mg/kg bid
Protocol: For in vivo infection, BALB/c male mice (>20 g) were rendered diabetic with a single i.p. injection of 210 mg/kg streptozotocin in 0.2 ml citrate buffer 10 days prior to fungal challenge. Glycosuria and ketonuria were confirmed in all mice 7 days after streptozotocin treatment. For neutropenic mouse model, mice were injected with a single i.p. dose of 200 mg/kg cyclolphosphamide (Bristol Myer Squibb) 2 days prior to infection with R. oryzae. […] Mice were infected through the tail vein with the appropriate inocula of R. oryzae. To confirm the inocula, dilutions were streaked on PDA plates containing 0.1% triton and colonies were counted following a 24 h incubation period at 37° C. The primary efficacy endpoint was time to death. As a secondary endpoint, brain fungal burden (the primary target organ) was determined by homogenization by rolling a pipette on organs placed in Whirl-Pak™ bags (Nasco®, Fort Atkinson, Wis.) containing 1 ml saline. The homogenate was serially diluted in 0.85% saline and then quantitatively cultured on PDA. Values were expressed as log10 cfu g−1 tissue. […]
To determine the impact of deferasirox on tissue fungal burden, diabetic ketoacidotic mice were infected via the tail-vein with 4.2×10^4 spores of R. oryzae 99-892. […] Kidneys and brains were removed on day four, homogenized, and quantitatively cultured.

[3] = test system: Th1/Th2 and inflammatory cytokine responses; assay: Splenic lymphocyte frequency and whole organ cytokines in infected DKA mice; assay type: in vivo
Protocol: Splenic lymphocyte frequencies were determined as we have previously described (Spellberg et al., Infect. Immun. 71:5756-5764 (2003)). In brief, splenic homogenates were passed through 70 μm filters followed by RBC lysis with 0.15 M ammonium chloride. The cells were fixed with Cytofix™ buffer (BD Pharmingen®), permeabilized with Cytoperm™ buffer (BD Pharmingen), and stained with 10 μg/ml of FITC-conjugated anti-mouse CD4 (clone RM4-5), PE-conjugated anti-mouse IFN-γ (clone XMG1.2) or isotype control (clone R-34), allophycocyanin (APC)-conjugated anti-mouse IL-4 (clone 11B11) or isotype control (clone R3-34), or APC-conjugated anti-mouse IL-10 (clone JES5-16E3) or isotype control (clone A95-1) (all from BD Pharmingen). In separate experiments, the frequency of CD4+CD25+foxp3+T-regulatory cells were determined using the Mouse Regulatory T cell Staining™ Kit (eBioscience®) per the manufacturer's recommendation. The frequency of apoptosis was determined using the Annexin FITC Apoptosis™ kit (BD Pharmingen®).
Cells were washed and three-color flow cytometry was performed on a Becton-Dickinson FACScan™ instrument calibrated with CaliBRITE™ beads (BD Pharmingen) using FACSComp™ software as per the manufacturer's recommendations. During data acquisition, CD4+lymphocytes were gated by concatenation of forward and side scatter, and FITC-anti-CD4 antibody fluorescence properties. Data for each sample were acquired until 10,000 CD4+lymphocytes were analyzed.
Spleens and kidneys were homogenized in 1 ml of PBS. The homogenates were pelleted at maximum speed on a tabletop centrifuge at 4° C. The supernatants were assayed for cytokines using the Cytometric Bead Array Murine Inflammatory Cytokine™ kit (BD Pharmingen) per the manufacturer's instructions.
Because of the alterations in inflammatory cellular influx seen in kidneys of mice treated with saturating ferric chloride vs. iron chelation, in this example we determined the impact of deferasirox therapy on Th1/Th2 and inflammatory cytokine responses in infected mice. Diabetic ketoacidotic mice were infected with 3.1×10^4 spores of R. oryzae 99-892 as above and treated with deferasirox, deferasirox plus ferric chloride, or placebo. On day four of infection, spleens and kidneys were processed for intracellular and whole organ cytokine determination.

[4] = R. oryzae 99-892, between the groups
[5] = R. oryzae 99-892, vs saturating iron or placebo

SMILES: O=C(O)c1ccc(-n2nc(-c3ccccc3O)nc2-c2ccccc2O)cc1 [Deferasirox, 4-[3,5-Bis(2-hydroxyphenyl)-1H-1,2,4-triazol-1-yl]-benzoic acid]
- Fungicidal? ([1]; Mucor 97-1083, 24 h): Y (Cidal = MFC/MIC ≦ 4)
- Fungicidal? ([1]; Mucor 97-1083, 48 h): Y (Cidal = MFC/MIC ≦ 4)
- Fungicidal? ([1]; Mucor ramosissumus 97-1192, 24 h): Y (Cidal = MFC/MIC ≦ 4)
- MFC ([1]; Mucor ramosissumus 97-1192, 24 h, read-out: MFC): 0.78 µg/mL (≈ 2.09 µM)
- MIC ([1]; Mucor ramosissumus 97-1192, 24 h, read-out: MIC): 0.78 µg/mL (≈ 2.09 µM)
- Fungicidal? ([1]; Mucor ramosissumus 97-1192, 48 h): Y (Cidal = MFC/MIC ≦ 4)
- MFC ([1]; Mucor ramosissumus 97-1192, 48 h, read-out: MFC): 0.78 µg/mL (≈ 2.09 µM)
- MIC ([1]; Mucor ramosissumus 97-1192, 48 h, read-out: MIC): 0.78 µg/mL (≈ 2.09 µM)
- Fungicidal? ([1]; Mucor sp. 99-932, 24 h): Y (Cidal = MFC/MIC ≦ 4)
- Fungicidal? ([1]; Mucor sp. 99-932, 48 h): Y (Cidal = MFC/MIC ≦ 4)
- Fungicidal? ([1]; Mucor spp. MIC90/MFC90, 24 h): Y (Cidal = MFC/MIC ≦ 4)
- MFC90 ([1]; Mucor spp. MIC90/MFC90, 24 h): 3.12 µg/mL (≈ 8.36 µM)
- Fungicidal? ([1]; Mucor spp. MIC90/MFC90, 48 h): Y (Cidal = MFC/MIC ≦ 4)
- MFC90 ([1]; Mucor spp. MIC90/MFC90, 48 h): 3.12 µg/mL (≈ 8.36 µM)
- MIC90 ([1]; Mucor, 24 h): 3.12 µg/mL (≈ 8.36 µM)
- MFC ([1]; Mucor, 24 h, Mucor 97-1083): 3.12 µg/mL (≈ 8.36 µM)
- MIC ([1]; Mucor, 24 h, Mucor 97-1083): 3.12 µg/mL (≈ 8.36 µM)
- MFC ([1]; Mucor, 24 h, Mucor sp. 99-932): 3.12 µg/mL (≈ 8.36 µM)
- MIC ([1]; Mucor, 24 h, Mucor sp. 99-932): 3.12 µg/mL (≈ 8.36 µM)
- MIC90 ([1]; Mucor, 48 h): 3.12 µg/mL (≈ 8.36 µM)
- MFC ([1]; Mucor, 48 h, Mucor 97-1083): 3.12 µg/mL (≈ 8.36 µM)
- MIC ([1]; Mucor, 48 h, Mucor 97-1083): 3.12 µg/mL (≈ 8.36 µM)
- MFC ([1]; Mucor, 48 h, Mucor sp. 99-932): 3.12 µg/mL (≈ 8.36 µM)
- MIC ([1]; Mucor, 48 h, Mucor sp. 99-932): 3.12 µg/mL (≈ 8.36 µM)
- hyphae in kidneys by histopathology [2]: no visible hyphae
- neutrophil influx in the kidneys [2]: prominent
- Th1 and Th2 splenocyte frequencies ([3]; 3.1×10^4 spores R. oryzae 99-892, day four, vs saturating ferric chloride or placebo): significant increase
- kidney level of IFN-γ ([3]; R. oryzae 99-892): significantly higher
- frequencies of CD4+IL-10+ or CD4+CD25+foxp3+ splenocytes [3, 4]: not significantly different
- splenocyte apoptosis [3, 4]: no significant difference
- splenic level of IFN-γ [3, 5]: significantly higher
- splenic level of TNF [3, 5]: significantly higher
